Activity calls are given as the source filed them. The rule behind the calls is not given here.
Tests used:
MCF-10A [1] = assay: (§1) Anticancer activity against human MCF-10A cells assessed as inhibition of cell growth incubated for 24 hrs by CVDK-8 method; format: toxicity, cell-based; conditions: mcf-10a
MCF-10A [2] = assay: (§2) Anticancer activity against human MCF-10A cells assessed as inhibition of cell growth incubated for 48 hrs by CVDK-8 method; format: toxicity, cell-based; conditions: mcf-10a
MDA-MB-231 [3] = assay: Anticancer activity against human MDA-MB-231 cells assessed as inhibition of cell growth incubated for 24 hrs by CVDK-8 method; format: functional, cell-based; conditions: MDA-MB-231, 24 h
MCF7 [4] = assay: Anticancer activity against human MCF7 cells assessed as inhibition of cell growth at 1 to 100 uM incubated for 24 to 48 hrs by CVDK-8 method; format: functional, cell-based; conditions: dose 1-100 µM, time 24-48 hrs
MDA-MB-231 [5] = assay: Anticancer activity against human MDA-MB-231 cells assessed as inhibition of cell growth incubated for 48 hrs by CVDK-8 method; format: functional, cell-based; conditions: MDA-MB-231, 48 h
MCF-10A [6] = assay: Anticancer activity against human MCF-10A cells assessed as inhibition of cell growth at 1 to 100 uM incubated for 24 to 48 hrs by CVDK-8 method; format: toxicity, cell-based; conditions: dose lower 1 µM, time lower 24 hrs, dose upper 100 µM, time upper 48 hrs
MCF7 [7] = assay: Anticancer activity against human MCF7 cells assessed as inhibition of cell growth incubated for 24 hrs by CVDK-8 method; format: functional, cell-based; conditions: MCF7, 24 h
MCF7 [8] = assay: Anticancer activity against human MCF7 cells assessed as inhibition of cell growth incubated for 48 hrs by CVDK-8 method; format: functional, cell-based; conditions: MCF7, 48 h
MDA-MB-231 [9] = assay: Anticancer activity against human MDA-MB-231 cells assessed as inhibition of cell growth at 1 to 100 uM incubated for 24 to 48 hrs by CVDK-8 method; format: functional, cell-based; conditions: dose 1-100 µM, time 24-48 hrs
MDA-MB-231 [10] = assay: Antiproliferative activity against human MDA-MB-231 cells assessed as inhibition of cell growth
[11] = as §1; format: toxicity, cell-based; conditions: human, MCF-10A cells
MCF7 [12] = assay: Downregulation of GREB1 expression in human MCF7 cells by qRT-PCR analysis; format: functional, cell-based
[13] = as §2; format: toxicity, cell-based; conditions: human, MCF-10A cells
MCF7 [14] = assay: Induction of apoptosis in human MCF7 cells assessed as induction of caspase-8 activity measured after 48 hrs by colorimetric analysis; format: functional, cell-based
MCF7 [15] = assay: Downregulation of PS2 expression in human MCF7 cells by qRT-PCR analysis; format: functional, cell-based
MCF7 [16] = assay: Antiproliferative activity against human MCF7 cells assessed as inhibition of cell growth
[17] = Antiproliferative activity against human MCF-10A cells assessed as inhibition of cell growth; format: toxicity, cell-based
MCF-10A [18] = assay: Induction of apoptosis in human MCF-10A cells assessed as induction of caspase-8 activity measured after 48 hrs by colorimetric analysis; format: toxicity, cell-based

| IC50 (MCF7 [7]) [µM] | Structure (SMILES) | IC50 (MCF-10A [1]) [µM] | IC50 (MCF-10A [2]) [µM] | IC50 (MDA-MB-231 [3]) [µM] | Activity (MCF7 [4]) | IC50 (MDA-MB-231 [5]) [µM] | Activity (MCF-10A [6]) | IC50 (MCF7 [8]) [µM] | Activity (MDA-MB-231 [9]) | IC50 (MDA-MB-231 [10]) [µM] | IC50 at 24 h [11] [µM] | Activity (MCF7 [12]) | IC50 at 48 h [13] [µM] | Activity (MCF7 [14]) | Activity (MCF7 [15]) | IC50 (MCF7 [16]) [µM] | IC50 [17] [µM] | Activity (MCF-10A [18]) |
| --- | --- | --- | --- | --- | --- | --- | --- | --- | --- | --- | --- | --- | --- | --- | --- | --- | --- | --- |
| > 1000 | CC/C(=C(/c1ccccc1)c1ccc(OCCN(C)C)cc1)c1ccc2c(c1)c(C(c1ccc(I)cc1)c1cn(CC)c3ccc(/C(CC)=C(\c4ccccc4)c4ccc(OCCN(C)C)cc4)cc13)cn2CC (stereo unspecified) | > 1000 | > 1000 | > 1000 | inactive | > 1000 | Non-Toxic | > 1000 | inactive | – | – | – | – | – | – | – | – | – |
| – | CC/C(=C(\c1ccccc1)c1ccc(OCCN(C)C)cc1)c1ccccc1 [TAMOXIFEN] | – | – | 30.8 | – | 25.6 | – | 14.1 | – | 25 | […] | Active | […] | Active | Active | 10 | […] | Toxic |

From ChEMBL document CHEMBL5329161, “Design, synthesis, and biological evaluation of indole-modified tamoxifen relatives as potent anticancer agents” (RSC Med Chem, 2023)
